Data on one compound can be found in US20230097801A1, “METHODS OF INCREASING CELL PHAGOCYTOSIS” (National Health Research Institutes, priority 2021, published 2023).

Entries after “also recorded” stand apart in the source; their conditions may differ. Where two headings read alike, the source gives them in different places.

A short description of data set [1]: Plasma and tumor concentrations in Raji xenograft mice. It is filed as in vivo. The note with it: for concentration at 2 h: 2 hours after the last dose. Here is the method:
A pharmacokinetic study was conducted to evaluate plasma and tumor concentrations of Compound 34 using human B-cell lymphoma Raji xenograft tumors. One million Raji cells in culture medium and matrigel (1:1, v/v) were injected subcutaneously into the left flank region of each mouse. Treatments were initiated after randomization with inclusion of tumors at approximately 90 mm^3. A dosing vehicle for Compound 34 was prepared using 10% DMA: 40% PEG400: 50% (1% CMC) (v/v/v) and was dosed orally (p.o.) at 100 mg/kg once a day and 5 days a week (Q.D.*5). The mice were treated with either the vehicle control or Compound 34 for 3 weeks. They were sacrificed 2, 4, 8, or 24 hours after the last dose (n=4 per time point). Tumor and plasma were collected to determine concentrations of Compound 34.

Data set [2] relates to CD47. In words: Pharmacodynamic study, CC2C6 binding and total CD47 on Raji xenograft tumor cells. In kind it is in vivo, human. The note with it: 100 mg/kg p.o. QD*5, 10 days. Here is the method: A pharmacodynamic study was also conducted to evaluate target engagement of Compound 34. In this study, one million Raji cells in culture medium and matrigel (1:1, v/v) were injected subcutaneously into the left flank region of each mouse. Treatments were initiated after randomization with inclusion of tumors at approximately 150 mm^3. A dosing vehicle for Compound 34 was prepared using 10% DMA: 40% PEG400: 50% (1% CMC) (v/v/v) and was dosed orally (p.o.) at 100 mg/kg once a day and 5 days a week (Q.D.*5). The mice were treated with either the vehicle control or Compound 34 for 10 days. They were then sacrificed 24 hours after the last dose (n=4 per group). Tumors were harvested and isolated into single cell suspensions for flow cytometry analysis. Unexpectedly, Compound 34 reduced 56% of anti-CD47 CC2C6 antibody binding on the tumor cell surface, as indicated by a decreasing level of anti-CC2C6^+ tumor cells in the Compound 34-treated mice as compared to the vehicle-treated mice.
Background: A xenograft is tissue or cells of one species grown in another, often human tumour cells in immunodeficient mice.

For data set [3], the system named is CD47. Briefly: Flow cytometry, anti-human CD47 CC2C6 antibody binding on SK-OV-3 cell surface. It is filed as cell-based. Here is the method:
Binding between CD47 and SIRPα was studied by measuring the level of CD47 binding using any suitable method. Flow cytometric analysis is useful to quantify the level of binding of CD47 to antibody CC2C6, which is then subjected to an immune-staining procedure using fluorochrome-conjugated secondary antibody followed by analysis of the immune-staining signal with a flow cytometry instrument to obtain the level of the CD47-CC2C6 binding. In another method, analysis of CD47 is performed using SIRPα-Fc formed from SIRPα fused with human IgG1, which is then subjected to an immune-staining procedure using fluorochrome-conjugated secondary antibody against human IgG1, followed by analysis of the immune-staining signal. SIRPα is expressed on the surface of a myeloid cell such as macrophage, monocyte, neutrophil, or dendritic cell. Alternatively, SIRPα is fused with human IgG1 to form a SIRPα-Fc recombinant protein. […] An anti-cancer agent (e.g., rituximab) can be used together with a compound of formula (I). Useful anti-cancer agents are described above including anti-PD-L1 antibodies, anti-CD20 antibodies, anti-HER2 antibodies, anti-EGFR antibodies, and anti-CD47 antibodies. Other suitable anti-cancer agents are chemotherapeutic agents such as doxorubicin, epirubicin, idarubicin, methotrexate, mitoxantrone, oxaliplatin, and cyclophosphamide.
SK-OV-3 cells were purchased from ATCC (Manassas, Va.). SK-OV-3 cells were maintained at 37° C. under 5% CO2 in McCoy's 5a medium (Gibco, ThermoFisher, Waltham, Mass.) with 10% fetal bovine serum (FBS) (Sigma-Aldrich, St Louis, Mo.), and 2 mM L-glutamine.
Antibody conjugates and extracellular domain of SIRPα used to analyze cell surface CD47 binding include anti-human CD47 CC2C6, 2D3, recombinant human SIRPα/CD172a Fc chimer protein, and anti-human IgG Fc. To determine inhibition of CD47 binding, cancer cells were treated with compounds of formula (I) at various concentrations for 4 days. Thereafter, the cells were washed with PBS containing 0.5% BSA (FACS buffer) followed by incubation with fluorochrome-labeled antibodies to human CD47 (i.e., CC2C6 and 2D3) at 1:50 dilution in FACS buffer for 30 minutes at 4° C. Compounds of formula (I) produced a dose-dependent inhibition of anti-CD47 CC2C6 antibody that recognized CD47 and SIRPα binding site on the tumor cell surface including B-cell lymphoma Raji cells, colon cancer cells DLD-1, and ovarian cancer SK-OV-3 cells (see FIGS. 1A, 1B, and 1C, respectively).
On the technique in general: In flow cytometry, cells or beads pass a laser one at a time.

In the case of `O=C1NC[C@H](c2ccc(-c3csc(C(F)(F)F)c3)c(F)c2F)N1c1ccc2[nH]cnc2c1` [Compound 34], the tumor concentration in data set [1] (100 mg/kg p.o. QD*5 for 3 weeks, next 22 hours (2 to 24 hours after the last dose)) was ≥ 27,507 ng/g tissue weight. Besides, the concentration at 2 h was 18600 ng/mL in data set [1] (mouse, plasma, oral, 100 mg/kg p.o. QD*5 for 3 weeks, read-out: plasma concentration) and 29700 ng/g in data set [1] (mouse, tumor, oral, 100 mg/kg p.o. QD*5 for 3 weeks, read-out: tumor concentration). In data set [1] (mouse, plasma, oral, 100 mg/kg p.o. QD*5 for 3 weeks, 24 hours after the last dose), the concentration at 24 h amounted to 5360 ng/mL. The “tumor concentrations versus plasma (in words)” value in data set [1] (within 24 hours post treatment) is “much higher than those in plasma”. Besides, in the data set on CD47 [2], the “total CD47 expression level on the tumor cell surface” value was “did not affect a total CD47 expression level; also recorded: without affecting a total CD47 expression level”. Also, the IC50 in the data set on CD47 [3] (Ovarian Cancer (SK-OV3 cells), 4 days treatment, read-out: IC50, inhibition of CC2C6 binding) stood at 190 nM. In the data set with CD47 [3] (SK-OV-3 cells), the “inhibition of binding of anti-human CD47 antibody CC2C6 (in words)” value is recorded as “effectively inhibited”.

Usually IC50 stands for the concentration at which inhibition is half-maximal.
